US20240109917A1 (ACTELION PHARMACEUTICALS LTD, priority 2020, published 2024)
Like-named read-outs stand apart in the source and are kept apart here.

Tests used:
VEGFR2, unphosphorylated = VEGFR2, unphosphorylated (Homo sapiens (Human), UniProt P35968); assay: VEGFR ADP GLO Assay; assay type: biochemical
PDGFRβ = PDGFRβ (Rattus norvegicus (Rat), UniProt Q05030); assay: PDGFRβ Cellular Assay (PDGFRb P-Y751 HTRF in A10 cells stimulated with PDGF-BB); assay type: cell-based
In short: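 Rat A10 cells, plated overnight, were treated with compound for 3 hours, then stimulated with PDGF-BB (working stock 100 ng/mL in 10% FBS medium). After lysis, PDGFRβ P-Y751 was detected by HTRF.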

Sequence of VEGFR2, unphosphorylated (P35968 20-1356): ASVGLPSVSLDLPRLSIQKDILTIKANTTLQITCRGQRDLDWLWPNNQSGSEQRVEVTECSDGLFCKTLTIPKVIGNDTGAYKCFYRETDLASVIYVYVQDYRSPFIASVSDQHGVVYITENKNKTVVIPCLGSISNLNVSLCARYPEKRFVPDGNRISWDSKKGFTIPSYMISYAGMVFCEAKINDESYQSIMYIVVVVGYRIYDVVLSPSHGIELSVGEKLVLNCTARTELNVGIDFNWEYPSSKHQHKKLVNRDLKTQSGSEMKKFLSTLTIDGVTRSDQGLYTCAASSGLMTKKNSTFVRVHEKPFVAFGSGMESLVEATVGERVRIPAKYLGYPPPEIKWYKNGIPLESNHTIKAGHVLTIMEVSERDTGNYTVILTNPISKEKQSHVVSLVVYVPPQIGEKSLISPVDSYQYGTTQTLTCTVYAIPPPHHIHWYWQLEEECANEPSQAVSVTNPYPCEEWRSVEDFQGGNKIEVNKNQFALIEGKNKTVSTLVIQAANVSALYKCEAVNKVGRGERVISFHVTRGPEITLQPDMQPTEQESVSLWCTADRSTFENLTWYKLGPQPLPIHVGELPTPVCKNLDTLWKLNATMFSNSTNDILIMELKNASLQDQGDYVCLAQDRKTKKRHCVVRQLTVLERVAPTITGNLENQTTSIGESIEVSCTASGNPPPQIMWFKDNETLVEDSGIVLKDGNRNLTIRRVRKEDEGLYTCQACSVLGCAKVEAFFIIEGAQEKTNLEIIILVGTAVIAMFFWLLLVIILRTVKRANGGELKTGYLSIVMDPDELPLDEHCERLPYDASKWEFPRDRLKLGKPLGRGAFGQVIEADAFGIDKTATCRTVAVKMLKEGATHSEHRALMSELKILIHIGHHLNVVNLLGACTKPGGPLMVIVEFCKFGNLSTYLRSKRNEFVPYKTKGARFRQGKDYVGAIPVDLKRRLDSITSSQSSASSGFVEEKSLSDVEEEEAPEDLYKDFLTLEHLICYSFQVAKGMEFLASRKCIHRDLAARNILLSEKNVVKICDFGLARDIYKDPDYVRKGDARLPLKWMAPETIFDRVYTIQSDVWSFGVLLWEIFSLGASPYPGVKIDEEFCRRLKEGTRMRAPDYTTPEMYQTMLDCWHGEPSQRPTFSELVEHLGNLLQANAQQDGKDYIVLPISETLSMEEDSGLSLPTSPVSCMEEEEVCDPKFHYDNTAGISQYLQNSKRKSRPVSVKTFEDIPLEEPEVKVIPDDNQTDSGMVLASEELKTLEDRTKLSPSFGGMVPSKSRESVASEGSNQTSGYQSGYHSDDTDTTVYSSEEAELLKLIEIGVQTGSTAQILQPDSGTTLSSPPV
Sequence of PDGFRβ (Q05030 32-1097): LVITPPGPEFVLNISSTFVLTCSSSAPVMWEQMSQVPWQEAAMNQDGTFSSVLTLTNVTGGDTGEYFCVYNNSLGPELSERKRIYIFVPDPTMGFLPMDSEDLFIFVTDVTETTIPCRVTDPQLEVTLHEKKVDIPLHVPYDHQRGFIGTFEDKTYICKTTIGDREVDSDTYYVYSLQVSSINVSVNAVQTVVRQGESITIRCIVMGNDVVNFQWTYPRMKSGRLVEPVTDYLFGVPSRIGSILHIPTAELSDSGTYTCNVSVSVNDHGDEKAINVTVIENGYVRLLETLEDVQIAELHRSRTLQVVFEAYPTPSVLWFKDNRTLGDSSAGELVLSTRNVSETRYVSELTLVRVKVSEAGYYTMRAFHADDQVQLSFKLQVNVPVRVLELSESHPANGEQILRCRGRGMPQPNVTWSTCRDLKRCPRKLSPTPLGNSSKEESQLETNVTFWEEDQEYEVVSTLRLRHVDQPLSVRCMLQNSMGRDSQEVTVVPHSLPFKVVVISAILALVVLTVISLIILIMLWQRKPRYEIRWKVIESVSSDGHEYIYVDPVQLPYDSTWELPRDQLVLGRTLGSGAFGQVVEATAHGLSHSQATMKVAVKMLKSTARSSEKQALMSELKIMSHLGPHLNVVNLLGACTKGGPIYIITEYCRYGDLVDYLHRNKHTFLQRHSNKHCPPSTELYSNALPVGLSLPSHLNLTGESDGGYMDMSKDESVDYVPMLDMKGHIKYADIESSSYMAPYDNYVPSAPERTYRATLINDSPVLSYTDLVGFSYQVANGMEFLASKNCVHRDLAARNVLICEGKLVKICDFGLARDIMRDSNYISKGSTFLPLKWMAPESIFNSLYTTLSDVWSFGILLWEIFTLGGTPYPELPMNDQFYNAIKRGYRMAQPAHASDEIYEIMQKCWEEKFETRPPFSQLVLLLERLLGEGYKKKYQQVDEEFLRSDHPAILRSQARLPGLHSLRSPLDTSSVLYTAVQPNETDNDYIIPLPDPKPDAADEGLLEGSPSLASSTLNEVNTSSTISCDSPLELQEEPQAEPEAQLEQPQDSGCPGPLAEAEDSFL

Structure (SMILES)	IC50 (VEGFR2, unphosphorylated)	IC50 (PDGFRβ; PDGFR Cellular IC50)	IC50 (PDGFRβ; read-out: PDGFR Cellular IC50)
Cc1ncc(NC(=O)CN2C[C@@H](C)O[C@H](C)C2)cc1NC(=O)c1cnn2cc(-c3cnn(CCS(C)(=O)=O)c3)sc12 (relative stereo) [Example 432, N-(5-(2-(trans-2,6-dimethylmorpholino)acetamido)-2-methylpyridin-3-yl)-2-(1-(2-(methylsulfonyl)ethyl)-1H-pyrazol-4-yl)pyrazolo[5,1-b]thiazole-7-carboxamide]	> 2.5 µM	420 nM	–
COCCn1cc(-c2cn3ncc(C(=O)Nc4cc(NC(=O)CN5CCC5C(C)C)cnc4C)c3s2)cn1 (stereo not shown) [Example 467, N-(5-(2-(2-isopropylazetidin-1-yl)acetamido)-2-methylpyridin-3-yl)-2-(1-(2-methoxyethyl)-1H-pyrazol-4-yl)pyrazolo[5,1-b]thiazole-7-carboxamide]	> 7.5 µM	–	4.4 nM
Cc1ncc(NC(=O)CNC2CCCC2)cc1NC(=O)c1cnn2cc(-c3cnn4c3OCCC4)sc12 [Example 421, N-(5-(2-(cyclopentylamino)acetamido)-2-methylpyridin-3-yl)-2-(6,7-dihydro-5H-pyrazolo[5,1-b][1,3]oxazin-3-yl)pyrazolo[5,1-b]thiazole-7-carboxamide]	> 7.5 µM	–	6.2 nM
Cc1ncc(NC(=O)CN2CCCC2(C)C)cc1NC(=O)c1cnn2cc(-c3cccnc3OCCF)sc12 [Example 448, N-(5-(2-(2,2-dimethylpyrrolidin-1-yl)acetamido)-2-methylpyridin-3-yl)-2-(2-(2-fluoroethoxy)pyridin-3-yl)pyrazolo[5,1-b]thiazole-7-carboxamide]	> 7.5 µM	–	2.4 nM
Cc1ncc(C(=O)NCCN2CC3CCC2CC3)cc1NC(=O)c1cnn2cc(-c3cnn4c3CCC4)sc12 [Example 480, N-(5-((2-(2-azabicyclo[2.2.2]octan-2-yl)ethyl)carbamoyl)-2-methylpyridin-3-yl)-2-(5,6-dihydro-4H-pyrrolo[1,2-b]pyrazol-3-yl)pyrazolo[5,1-b]thiazole-7-carboxamide]	> 7.5 µM	–	19.5 nM
CCOc1ncccc1-c1cn2ncc(C(=O)Nc3cc(NC(=O)CN4CC(C)(C)C4)cnc3C)c2s1 [Example 436, N-(5-(2-(3,3-Dimethylazetidin-1-yl)acetamido)-2-methylpyridin-3-yl)-2-(2-ethoxypyridin-3-yl)pyrazolo[5,1-b]thiazole-7-carboxamide]	4.3 µM	–	1.6 nM
Cc1ncc(NC(=O)CNC2CCC2)cc1NC(=O)c1cnn2cc(-c3cnn4c3CCC4)sc12 [Example 471, N-(5-(2-(cyclobutylamino)acetamido)-2-methylpyridin-3-yl)-2-(5,6-dihydro-4H-pyrrolo[1,2-b]pyrazol-3-yl)pyrazolo[5,1-b]thiazole-7-carboxamide]	> 7.5 µM	–	3.4 nM
Cc1ncc(NC(=O)CN2CCCC2(C)C)cc1NC(=O)c1cnn2cc(-c3cnn4c3COCC4)sc12 [Example 458, 2-(6,7-dihydro-4H-pyrazolo[5,1-c][1,4]oxazin-3-yl)-N-(5-(2-(2,2-dimethylpyrrolidin-1-yl)acetamido)-2-methylpyridin-3-yl)pyrazolo[5,1-b]thiazole-7-carboxamide]	> 7.5 µM	–	2 nM
Cc1ncc(NC(=O)CN2CCCC2(C)C)cc1NC(=O)c1cnn2cc(-c3cnn(CCO)c3)sc12 [Example 447, N-(5-(2-(2,2-dimethylpyrrolidin-1-yl)acetamido)-2-methylpyridin-3-yl)-2-(1-(2-hydroxyethyl)-1H-pyrazol-4-yl)pyrazolo[5,1-b]thiazole-7-carboxamide]	> 7.5 µM	–	12.4 nM
Cc1ncc(NC(=O)CNCC2CC2)cc1NC(=O)c1cnn2cc(-c3cnn4c3CCC4)sc12 [Example 454, N-(5-(2-((cyclopropylmethyl)amino)acetamido)-2-methylpyridin-3-yl)-2-(5,6-dihydro-4H-pyrrolo[1,2-b]pyrazol-3-yl)pyrazolo[5,1-b]thiazole-7-carboxamide]	> 7.5 µM	–	12.7 nM
Cc1cc(C(=O)NCCN2CCCC23CCC3)sc1NC(=O)c1cnn2cc(-c3cnn(C)c3)sc12 [Example 35, N-(5-((2-(5-azaspiro[3.4]octan-5-yl)ethyl)carbamoyl)-3-methylthiophen-2-yl)-2-(1-methyl-1H-pyrazol-4-yl)pyrazolo[5,1-b]thiazole-7-carboxamide]	> 7.5 µM	–	33.6 nM
COCCn1cc(-c2cn3ncc(C(=O)Nc4cc(NC(=O)C5(CN6CCC[C@@H]6C)CC5)cnc4C)c3s2)cn1 [Example 452, (S)-2-(1-(2-methoxyethyl)-1H-pyrazol-4-yl)-N-(2-methyl-5-(1-((2-methylpyrrolidin-1-yl)methyl)cyclopropanecarboxamido)pyridin-3-yl)pyrazolo[5,1-b]thiazole-7-carboxamide]	> 7.5 µM	–	91.6 nM
Cc1ncc(NC(=O)CN2CC(C)(C)C2)cc1NC(=O)c1cnn2cc(-c3ccnnc3C)sc12 [Example 410, N-(5-(2-(3,3-dimethylazetidin-1-yl)acetamido)-2-methylpyridin-3-yl)-2-(3-methylpyridazin-4-yl)pyrazolo[5,1-b]thiazole-7-carboxamide]	> 7.5 µM	270 nM	–
COC1CN(CC(=O)Nc2cnc(C)c(NC(=O)c3cnn4cc(-c5cn(C)nc5C)sc34)c2)C1 [Example 441, 2-(1,3-Dimethyl-1H-pyrazol-4-yl)-N-(5-(2-(3-methoxyazetidin-1-yl)acetamido)-2-methylpyridin-3-yl)pyrazolo[5,1-b]thiazole-7-carboxamide]	> 7.5 µM	–	30.5 nM
Cc1ncc(NC(=O)CNC2CCCC2)cc1NC(=O)c1cnn2cc(-c3cnn4c3CCC4)sc12 [Example 422, N-(5-(2-(cyclopentylamino)acetamido)-2-methylpyridin-3-yl)-2-(5,6-dihydro-4H-pyrrolo[1,2-b]pyrazol-3-yl)pyrazolo[5,1-b]thiazole-7-carboxamide]	> 7.5 µM	–	2.6 nM
Cc1ncc(C(=O)NCCN2CCCC2(C)C)cc1NC(=O)c1cnn2cc(-c3cnn4c3OCCC4)sc12 [Example 460, 2-(6,7-dihydro-5H-pyrazolo[5,1-b][1,3]oxazin-3-yl)-N-(5-((2-(2,2-dimethylpyrrolidin-1-yl)ethyl)carbamoyl)-2-methylpyridin-3-yl)pyrazolo[5,1-b]thiazole-7-carboxamide]	> 7.5 µM	–	13.4 nM
COCCn1cc(-c2cn3ncc(C(=O)Nc4cc(NC(=O)C[C@@H]5CCCN5C(C)C)cnc4C)c3s2)cn1 [Example 451, (S)—N-(5-(2-(1-isopropylpyrrolidin-2-yl)acetamido)-2-methylpyridin-3-yl)-2-(1-(2-methoxyethyl)-1H-pyrazol-4-yl)pyrazolo[5,1-b]thiazole-7-carboxamide]	> 7.5 µM	–	67 nM
Cc1ncc(NC(=O)CN2C[C@@H](C)O[C@H](C)C2)cc1NC(=O)c1cnn2cc(-c3cnn(C)c3C)sc12 (relative stereo) [Example 433, 2-(1,5-Dimethyl-1H-pyrazol-4-yl)-N-(5-(2-(trans-2,6-dimethylmorpholino)acetamido)-2-methylpyridin-3-yl)pyrazolo[5,1-b]thiazole-7-carboxamide]	> 7.5 µM	–	5.1 nM
Cc1ncc(NC(=O)CN2CC(C)(C)C2)cc1NC(=O)c1cnn2cc(-c3nn(C)nc3C)sc12 [Example 445, 2-(2,5-Dimethyl-2H-1,2,3-triazol-4-yl)-N-(5-(2-(3,3-dimethylazetidin-1-yl)acetamido)-2-methylpyridin-3-yl)pyrazolo[5,1-b]thiazole-7-carboxamide]	> 7.5 µM	–	2.2 nM
Cc1ncc(NC(=O)CN2CCC2)cc1NC(=O)c1cnn2cc(-c3cnn4c3OCCC4)sc12 [Example 412, N-(5-(2-(azetidin-1-yl)acetamido)-2-methylpyridin-3-yl)-2-(6,7-dihydro-5H-pyrazolo[5,1-b][1,3]oxazin-3-yl)pyrazolo[5,1-b]thiazole-7-carboxamide]	> 7.5 µM	–	77.2 nM
Cc1ncc(C(=O)NCC2CCCN2C)cc1NC(=O)c1cnn2cc(-c3cnn4c3OCCC4)sc12 (stereo not shown) [Example 470, 2-(6,7-dihydro-5H-pyrazolo[5,1-b][1,3]oxazin-3-yl)-N-(2-methyl-5-(((1-methylpyrrolidin-2-yl)methyl)carbamoyl)pyridin-3-yl)pyrazolo[5,1-b]thiazole-7-carboxamide]	> 7.5 µM	–	109 nM
Cc1ncc(NC(=O)CN2CC(C)(C)C2)cc1NC(=O)c1cnn2cc(-c3cnc4n3CCOC4)sc12 [Example 415, 2-(5,6-dihydro-8H-imidazo[2,1-c][1,4]oxazin-3-yl)-N-(5-(2-(3,3-dimethylazetidin-1-yl)acetamido)-2-methylpyridin-3-yl)pyrazolo[5,1-b]thiazole-7-carboxamide]	> 7.5 µM	–	41.5 nM
Cc1ncc(C(=O)NCCN2CCCC23CCC3)cc1NC(=O)c1cnn2cc(-c3cnn4c3OCCC4)sc12 [Example 478, N-(5-((2-(5-azaspiro[3.4]octan-5-yl)ethyl)carbamoyl)-2-methylpyridin-3-yl)-2-(6,7-dihydro-5H-pyrazolo[5,1-b][1,3]oxazin-3-yl)pyrazolo[5,1-b]thiazole-7-carboxamide]	2.56 µM	–	4.6 nM
Cc1ncc(NC(=O)CN2C[C@@H](C)O[C@H](C)C2)cc1NC(=O)c1cnn2cc(-c3cn(C)nc3C)sc12 [Example 431]	> 7.5 µM	–	5 nM
COC1(C)CN(CC(=O)Nc2cnc(C)c(NC(=O)c3cnn4cc(-c5cn(C)nc5C)sc34)c2)C1 [Example 442, 2-(1,3-Dimethyl-1H-pyrazol-4-yl)-N-(5-(2-(3-methoxy-3-methylazetidin-1-yl)acetamido)-2-methylpyridin-3-yl)pyrazolo[5,1-b]thiazole-7-carboxamide]	> 7.5 µM	–	8.1 nM
COCCn1cc(-c2cn3ncc(C(=O)Nc4cc(NC(=O)CCC5CCCN5C)cnc4C)c3s2)cn1 (stereo not shown) [Example 462, 2-(1-(2-methoxyethyl)-1H-pyrazol-4-yl)-N-(2-methyl-5-(3-(1-methylpyrrolidin-2-yl)propanamido)pyridin-3-yl)pyrazolo[5,1-b]thiazole-7-carboxamide]	> 7.5 µM	–	298 nM
